Laboratory results taken from US6239122A, “Method of treatment of nausea, vomiting, and other disorders using estrogens” (priority 2000, dated 2001).

What was measured:
5-HT3 receptor [1] = target: T1, 5-HT3 receptor (Mus musculus, UniProt P23979); experiment: Whole-cell patch clamp, co-application of estrogen with 5-HT (0.5 μM); open conformation, high affinity site; type: cell-based, mouse neuroblastoma×Chinese hamster brain cell line (NCB-20)
T1 construct: an immortal cell line that expresses 5-HT3 receptors at a high density; endogenous in cells; host or cells: NCB-20 cells (mouse neuroblastoma × Chinese hamster brain hybrid)
T1 sequence (P23979 24-489): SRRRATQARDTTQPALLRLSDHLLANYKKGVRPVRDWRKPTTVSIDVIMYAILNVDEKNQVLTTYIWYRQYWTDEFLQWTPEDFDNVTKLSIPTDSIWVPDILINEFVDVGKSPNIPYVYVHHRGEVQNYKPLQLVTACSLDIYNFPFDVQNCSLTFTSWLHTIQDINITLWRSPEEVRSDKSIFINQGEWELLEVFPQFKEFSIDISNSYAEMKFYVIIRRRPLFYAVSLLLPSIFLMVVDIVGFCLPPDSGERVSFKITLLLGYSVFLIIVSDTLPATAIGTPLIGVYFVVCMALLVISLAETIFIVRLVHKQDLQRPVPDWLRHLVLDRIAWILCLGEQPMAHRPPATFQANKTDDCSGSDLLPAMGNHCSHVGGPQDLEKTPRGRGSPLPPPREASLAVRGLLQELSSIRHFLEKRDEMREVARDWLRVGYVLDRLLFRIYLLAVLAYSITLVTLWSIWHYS
Experimental: I recorded membrane currents carried by 5-HT3 receptors under voltage-clamp from single cells using the whole-cell configuration of the patch clamp technique (Hamill, O. P., Marty, A., Neher, E., Sakmann, B. & Sakmann, F. J., 1981, Pfluegers Arch. 391:85-100). Recordings were performed at a holding potential of -60 mV. Ligands were applied to the cells using a gravity-feed rapid perfusion system.
When the agonist is bound to the receptor and the receptor is conducting current, the receptor is in an open conformation. […] Concentration-effect data from 21 cells were fitted with the Hill (logistic) equation.

5-HT3 receptor [2] = target: T1, 5-HT3 receptor; experiment: Whole-cell patch clamp, estrogen applied before 5-HT (10 μM); closed conformation, low affinity site; type: cell-based, mouse neuroblastoma×Chinese hamster brain cell line (NCB-20)
Experimental: I used NCB-20 cells (mouse neuroblastoma×Chinese hamster brain cell line), an immortal cell line that expresses 5-HT3 receptors at a high density. Cells were grown in Dulbecco's modified Eagles medium containing 10% fetal bovine serum, 100 U/ml penicillin, 100 μg/ml streptomycin and 2 mM glutamine. Cells were incubated in 35 mm plates at 37 degrees C in a humidified 7% carbon dioxide atmosphere. […] I recorded membrane currents carried by 5-HT3 receptors under voltage-clamp from single cells using the whole-cell configuration of the patch clamp technique (Hamill, O. P., Marty, A., Neher, E., Sakmann, B. & Sakmann, F. J., 1981, Pfluegers Arch. 391:85-100). Recordings were performed at a holding potential of -60 mV. Ligands were applied to the cells using a gravity-feed rapid perfusion system.
This is also called the closed conformation of the receptor.

`C[C@]12CC[C@@H]3c4ccc(O)cc4CC[C@H]3[C@@H]1C[C@@H](O)[C@@H]2O` [estriol] gave an IC50 (5-HT3 receptor [1]) of 22000 ± 8000 nM.

`C[C@]12CC[C@@H]3c4ccc(O)cc4CC[C@H]3[C@@H]1CCC2=O` [estrone, 3-hydroxyestra-1,3,5(10)-trien-17-one] showed an IC50 (5-HT3 receptor [1]) of 1.5 nM and an IC50 (5-HT3 receptor [2]) of 300 ± 20 nM.
